Structures are written as SMILES. Active and inactive are the calls of the source. Where only a bound is given, the exact number is not on record here.

The target of one series is Cytochrome P450 2C19 (Homo sapiens, UniProt P33261). In words: Cytochrome panel assay with activity outcomes. Panel member name: p450-cyp2c19 Compounds with AC50 equal or less than 10 uM are considered active. The series is classed as functional.
A short description of series [1]: inhibitors of intracellular T. cruzi replication, confirmation, NIH3T3 host cells, beta-gal luminescence (AID 2044).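 Note: intracellular parasites grown in NIH/3T3 mouse fibroblasts as host cells; luminescent beta-galactosidase reporter signal from transgenic T. cruzi replicating inside host cells; inhibitors lower the luminescence signal.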 The series is classed as functional, cell-based.
The nature of series [2]: cytotoxicity toward NIH3T3 fibroblasts, dose response, counter-screen, cell-based, ATP luminescence, mouse fibroblasts (AID 2010).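 Note: cells exposed to compound for about 90 hours before reading.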 The series is classed as functional. On the technique in general: Counterscreens check selectivity or assay interference.
For a further series, the target named is Cytochrome P450 2C9 (Homo sapiens, UniProt P11712).
Cytochrome P450 2C9, sequence (P11712 whole entry): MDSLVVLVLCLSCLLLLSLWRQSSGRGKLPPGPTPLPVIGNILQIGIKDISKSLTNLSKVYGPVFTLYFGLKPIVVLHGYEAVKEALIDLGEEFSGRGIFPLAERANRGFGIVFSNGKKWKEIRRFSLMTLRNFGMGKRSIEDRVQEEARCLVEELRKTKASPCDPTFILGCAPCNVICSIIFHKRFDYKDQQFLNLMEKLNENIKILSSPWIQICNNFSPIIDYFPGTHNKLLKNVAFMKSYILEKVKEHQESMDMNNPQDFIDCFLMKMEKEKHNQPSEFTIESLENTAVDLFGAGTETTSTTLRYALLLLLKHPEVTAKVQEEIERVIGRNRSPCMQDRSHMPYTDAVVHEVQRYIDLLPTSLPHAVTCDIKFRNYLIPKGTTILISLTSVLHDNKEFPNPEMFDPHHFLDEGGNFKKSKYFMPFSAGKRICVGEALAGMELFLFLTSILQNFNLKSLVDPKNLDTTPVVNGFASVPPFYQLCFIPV

Cytochrome P450 2C19, sequence (P33261 whole entry): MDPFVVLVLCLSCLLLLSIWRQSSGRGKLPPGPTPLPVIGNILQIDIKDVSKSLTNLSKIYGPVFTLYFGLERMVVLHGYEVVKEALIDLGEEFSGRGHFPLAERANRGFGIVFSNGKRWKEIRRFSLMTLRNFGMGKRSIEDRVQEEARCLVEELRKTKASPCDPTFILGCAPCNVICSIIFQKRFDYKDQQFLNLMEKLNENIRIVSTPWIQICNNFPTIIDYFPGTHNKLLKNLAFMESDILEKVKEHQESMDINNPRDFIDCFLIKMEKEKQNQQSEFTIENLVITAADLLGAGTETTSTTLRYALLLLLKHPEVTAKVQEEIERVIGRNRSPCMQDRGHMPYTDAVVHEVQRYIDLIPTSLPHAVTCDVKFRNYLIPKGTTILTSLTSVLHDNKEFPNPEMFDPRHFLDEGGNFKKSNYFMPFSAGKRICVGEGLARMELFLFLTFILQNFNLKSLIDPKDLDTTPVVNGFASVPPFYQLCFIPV

Take `Cc1ccc(/C=N/n2c(S)nnc2COc2ccccc2)s1`: the half-maximal activity concentration (AC50) at Cytochrome P450 2C19 (read-out: AC50) is 2.24 µM (inconclusive). As for `CCCN1CCC(N(C)CCc2ccc(OC)c(OC)c2)CC1`, the EC50 in series [1] was 0.124 µM (active); in series [2], > 60 µM (not active). `CN(Cc1ccco1)c1ncncc1-c1ccc2c(c1)OCO2`: the AC50 on Cytochrome P450 2C9 is 0.794 µM (inconclusive).

`CCCCNC(=O)C1CCN(Cc2ccccn2)CC1`: the AC50 on Cytochrome P450 2C19 (read-out: AC50) is 35.5 µM (inconclusive).

As to `O=C(O)C1CCN(c2ncccn2)CC1`, at Cytochrome P450 2C19 (read-out: AC50), the AC50 was 0.0316 µM (inconclusive).

On to `O=C(c1cc(-c2ccncc2)nc2ccccc12)N1CCN(c2ccc(N3CCOCC3)nn2)CC1`, for which, on Cytochrome P450 2C19 (read-out: AC50), the AC50 is 15.8 µM (inconclusive).

`CN1CCN(c2ncnc3ccc(-c4ccc5c(c4)OCO5)cc23)CC1`: at Cytochrome P450 2C19 (read-out: AC50), the AC50 was 39.8 µM (inconclusive). For the compound `COc1cc(C(=O)Nc2ccc3c(c2)N(C(=O)CCN(C)C)c2ccccc2CC3)cc(OC)c1OC`, the values for the EC50 in series [1] and in series [2] were 0.642 µM (active) and > 60 µM (not active), respectively. With `O=C1C[C@@H](c2ccc(O)cc2)Oc2cc(O)cc(O)c21` [NARINGENIN], the AC50 at Cytochrome P450 2C19 (read-out: AC50) is 3.98 µM (inconclusive). On to `Cc1[nH]c2ccccc2c1C(=O)CN1CC=C(c2ccccc2)CC1`, for which the values for the EC50 in series [1] and in series [2] were 0.857 µM (active) and > 60 µM (not active), respectively. Take `Cc1ccc(CS(=O)(=O)CCC(=O)NCCCN2CCCC2)cc1`: the AC50 result at Cytochrome P450 2C19 was “inconclusive”. Turning to `O=C(NC1CCCCC1)C(c1ccccc1)N1CCOCC1` (configuration not stated), the AC50 at Cytochrome P450 2C19 (read-out: AC50) is 20 µM (inconclusive). `CN(C)c1nc(NC(C)(C)C)nc(NC(C)(C)C)n1`: the EC50 in series [1] is 0.596 µM (active); in series [2] it was > 60 µM (not active). The like results for `Cn1nc([N+](=O)[O-])nc1Sc1ccc(Cl)cc1` were, in that order, 0.108 µM (active) and > 30 µM (not active). For the compound `COc1ccc(CNC(=O)C2CCCN(Cc3nc(-c4cccc(C)c4)oc3C)C2)cc1` (configuration not stated), the EC50 in series [1] is 0.381 µM (active); in series [2] it was > 60 µM (not active). On to `CSc1nc(N)nc(SCC(=O)C23CC4CC(CC(C4)C2)C3)c1C#N`, for which the EC50 is 1.59 µM (active) in series [1] and > 60 µM (not active) in series [2]. Turning to `CC(=O)c1cccc(Nc2cc(C)nc3c(C)cc(C)cc23)c1`, the results for the EC50 in series [1] and in series [2] were 1.42 µM (active) and > 60 µM (inconclusive), respectively. On to `Cc1nn(C(C)C(=O)N2CCCC2)c(=O)c2nn(-c3ccccc3)c(C)c12` (configuration not stated), for which the EC50 in series [1] is 48.4 µM (active); in series [2], > 60 µM (not active). Regarding `CC(=O)Oc1cc(C(F)(F)F)ccc1C(=O)O` [TRIFLUSAL], the AC50 at Cytochrome P450 2C19 (read-out: AC50) is 3.98 µM (inconclusive). For the compound `Cc1cc(/C=C2/NC(=O)N(Cc3ccccc3F)C2=O)c(C)n1C(C)C`, the EC50 in series [1] is 0.154 µM (active); in series [2], > 60 µM (not active). The like results for `CCN(CC)CCN(C(=O)c1cccc([N+](=O)[O-])c1)c1nc2ccc(OC)cc2s1` were, in that order, 0.158 µM (active) and > 60 µM (inconclusive). `CCc1cccc(CN2CCC(CNC(=O)Nc3ccc(Cl)cc3)CC2)c1`: the EC50 is 1.25 µM (active) in series [1] and > 60 µM (not active) in series [2]. The like results for `O=C(Nc1ccccc1N1CCCC1)c1ccc([N+](=O)[O-])cc1Cl` were, in that order, 2.37 µM (active) and > 60 µM (not active). For the compound `CCN(CC)S(=O)(=O)N1CCC(C(=O)NCc2ccc(C)cc2)CC1`, the AC50 entry on Cytochrome P450 2C19 is reported as “inconclusive”. With `C[C@H]1COC(=O)[C@H]2CCCN2C(=O)[C@@H](C)COC(=O)[C@H](Cc2ccccc2)NC1=O`, the AC50 entry on Cytochrome P450 2C19 is “inconclusive”.

Turning to `CCCn1c2c(c(O)c(C(=O)Nc3ccc(OC)cc3)c1=O)CCCC2`, the EC50 in series [1] was 2.88 µM (active); in series [2], > 30 µM (not active).

As to `COc1ccc(-c2cnc(N)nc2-c2ccc(OCc3ccccc3)cc2O)cc1`, the EC50 in series [1] is 2.19 µM (active); in series [2], 10.6 µM (active).

Usually AC50 stands for the midpoint of the concentration-response curve, whichever way the signal moves. Broadly, the EC50 is the midpoint of the concentration-response curve.

The values are drawn from ChEMBL document CHEMBL1201862, “PubChem BioAssay data set” (2004).
